Experimental data reported in ChEMBL document CHEMBL1151569, “Diphenylmethyl ethers: synthesis and histamine H3-receptor antagonist in vitro and in vivo activity” (Bioorg Med Chem Lett, 1996).

Assays:
[1] = target: Histamine H1 receptor (Cavia porcellus) (UniProt P31389); experiment: In vitro antagonistic activity against histamine H1-receptor of guinea pig ileum; type: functional, tissue-based
[2] = target: Histamine H2 receptor (Cavia porcellus) (UniProt P47747); experiment: In vitro antagonistic activity against histamine H2-receptor of guinea pig atrium; type: functional, tissue-based; conditions: Cardiac atrium
Chain of Histamine H2 receptor (Cavia porcellus) (P47747 whole entry): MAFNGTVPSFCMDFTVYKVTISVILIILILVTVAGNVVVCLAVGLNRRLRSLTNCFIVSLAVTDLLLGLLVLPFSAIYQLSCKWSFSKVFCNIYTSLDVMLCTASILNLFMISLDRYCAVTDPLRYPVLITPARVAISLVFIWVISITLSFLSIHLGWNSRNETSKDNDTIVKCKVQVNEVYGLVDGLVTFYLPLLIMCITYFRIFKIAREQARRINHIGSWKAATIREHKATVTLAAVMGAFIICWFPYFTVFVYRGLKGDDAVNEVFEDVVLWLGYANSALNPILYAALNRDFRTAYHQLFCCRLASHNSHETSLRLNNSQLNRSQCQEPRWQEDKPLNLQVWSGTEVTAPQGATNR

[3] = target: Histamine H3 receptor (Mus musculus) (UniProt P58406); experiment: In vivo antagonistic activity against histamine H3-receptor of Swiss mice brain after peroral administration; type: functional, organism-based
Chain of Histamine H3 receptor (Mus musculus) (P58406 whole entry): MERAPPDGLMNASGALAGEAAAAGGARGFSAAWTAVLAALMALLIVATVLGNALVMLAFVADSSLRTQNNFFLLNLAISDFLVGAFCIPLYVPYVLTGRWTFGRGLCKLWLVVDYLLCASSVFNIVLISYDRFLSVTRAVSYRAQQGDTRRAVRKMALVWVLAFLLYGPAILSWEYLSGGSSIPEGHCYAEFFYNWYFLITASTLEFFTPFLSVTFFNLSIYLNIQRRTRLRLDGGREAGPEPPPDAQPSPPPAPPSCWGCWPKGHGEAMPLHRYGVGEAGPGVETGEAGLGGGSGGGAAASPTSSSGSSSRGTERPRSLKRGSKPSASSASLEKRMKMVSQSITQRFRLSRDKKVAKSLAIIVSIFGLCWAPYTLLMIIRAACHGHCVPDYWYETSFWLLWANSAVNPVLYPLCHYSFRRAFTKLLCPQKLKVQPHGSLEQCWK

Histamine H3 receptor = Histamine H3 receptor (Rattus norvegicus, UniProt Q9QYN8); experiment: In vitro antagonistic activity against histamine H3-receptor in an assay with K+-evoked depolarisation-induced release of [3H]histamine of synaptosomes of rat cerebral cortex; type: functional, subcellular, Brain
Chain of Histamine H3 receptor (Q9QYN8 whole entry): as the sequence (P58406 whole entry) above, with A15T, T286A, G290A, H387R, V389I counted along it

Chain of Histamine H1 receptor (Cavia porcellus) (P31389 whole entry): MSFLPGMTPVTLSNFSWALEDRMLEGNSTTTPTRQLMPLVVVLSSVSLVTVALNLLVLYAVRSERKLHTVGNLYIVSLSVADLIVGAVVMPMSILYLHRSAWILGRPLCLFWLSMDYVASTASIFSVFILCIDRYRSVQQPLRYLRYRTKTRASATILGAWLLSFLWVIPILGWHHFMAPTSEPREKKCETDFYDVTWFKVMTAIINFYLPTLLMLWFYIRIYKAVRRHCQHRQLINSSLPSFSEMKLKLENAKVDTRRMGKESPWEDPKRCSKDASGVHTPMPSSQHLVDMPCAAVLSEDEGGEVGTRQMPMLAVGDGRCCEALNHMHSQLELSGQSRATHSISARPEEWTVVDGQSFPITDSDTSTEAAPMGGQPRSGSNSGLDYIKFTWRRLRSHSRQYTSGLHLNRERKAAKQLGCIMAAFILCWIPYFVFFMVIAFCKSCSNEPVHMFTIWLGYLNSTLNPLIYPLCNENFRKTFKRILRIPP

SMILES	Kb [1]	-Log K [2]	ED50 [3]	Ki (Histamine H3 receptor)
S=C(NC1CCCCC1)N1CCC(c2cnc[nH]2)CC1	> 100000 nM	< 5	1 mg/kg	–
c1ccc2c(COCCCc3c[nH]cn3)cccc2c1	–	4.9	3.2 mg/kg	20 nM
N=C(NCc1ccc(Cl)cc1)SCCCc1c[nH]cn1	> 1000 nM	< 6	26 mg/kg	–
FC(F)(F)c1ccc(C(OCCCc2c[nH]cn2)c2ccccc2)cc1 (stereo not given)	–	–	> 10 mg/kg	200 nM
Clc1ccc(C(OCCCc2c[nH]cn2)c2ccccc2)cc1 (stereo not given)	–	5.2	3.9 mg/kg	–
Fc1ccc(C(OCCCc2c[nH]cn2)c2ccccc2)cc1 (stereo not given)	–	5.3	1.2 mg/kg	25.1 nM
c1ccc(COCCCc2c[nH]cn2)cc1	20000 nM	3.7	> 10 mg/kg	20 nM
Brc1ccc(C(OCCCc2c[nH]cn2)c2ccccc2)cc1 (stereo not given)	–	5.4	3.6 mg/kg	126 nM
Fc1ccc(C(OCCCc2c[nH]cn2)c2ccc(F)cc2)cc1	–	5.6	1.1 mg/kg	25.1 nM
c1ccc(C(OCCCc2c[nH]cn2)c2ccccc2)cc1	501 nM	5.5	2.4 mg/kg	25.1 nM
